{"source": "paper PMC6495379", "about": "“Reiterative Synthesis by the Ribosome and Recognition of the N-Terminal Formyl Group by Biosynthetic Machinery Contribute to Evolutionary Conservation of the Length of Antibiotic Microcin C Peptide Precursor” (mBio, 2019)", "key": {"[1]": {"tested_on": "E. coli MccB", "assay": "In vitro adenylation of MccA peptides by MccB, HPLC read-out", "assay_type": "biochemical, Escherichia coli", "conditions": "500 μM peptide, 5 μM MccB, 28°C, 20 min, HPLC 260 nm; for Yield of adenylated peptide (unformylated peptides): ATP", "protocol": "In previous work, it was shown that E. coli MccB is able to modify a wide range of substrates in vivo and in vitro, including MBP protein with attached A7 peptide ([14]). To test MccB activity on elongated substrates encoded by pA11 and pA15, we incubated purified MccB with ATP and chemically synthesized A11 and A15 peptides and measured adenylated peptide yields by high-pressure liquid chromatography (HPLC) (Fig. 6). […] We next repeated the experiment with N-terminally formylated versions of each peptide that correspond to the products of ribosomal synthesis. […] We conclude that under our conditions, the presence of the formyl group on the N-terminal methionine residue selectively amplified the yields of MccA heptapeptide adenylation compared to adenylation yields of longer peptides A11 and A15.\nFIG 6 In vitro adenylation of MccA peptides of different lengths by MccB. HPLC traces (260 nm) showing product formation after incubation of equal molar amounts of A7 (MRTGNAN), A11 (MGGGMRTGNAN), and A15 (MASTAGGGMRTGNAN) peptides and their N-terminally formylated variant peptides (marked with the f prefix) with MccB in the reaction buffer for 20 min at 28°C.\nFor adenylation efficiency measurements, 500 μM peptide was incubated with 5 μM MccB at 28°C for 20 min, and then the reaction was quenched with 0,1% TFA and analyzed using C18 reversed-phase chromatography (Symmetry C18, 5 μm, 4.6 mm by 150 mm; Waters). A 0% to 15% linear gradient of acetonitrile in 0.1% TFA was applied for elution. The identities of the compounds in the chromatographic fractions were confirmed by MALDI-TOF MS."}, "[2]": {"tested_on": "some strains of E. coli", "conditions": "cited from earlier work", "description": "Thus, the minimal set of three genes in an mcc cluster, encoding the precursor peptide, the adenylating enzyme, and the export pump protein, should be sufficient for production of McC-like antibacterial compounds. Bioinformatics searches reveal that genes coding for MccB-like proteins can be found in various bacteria that are phylogenetically distant from E. coli ([10])."}, "[3]": {"conditions": "formylated versus unformylated peptide"}}, "note": "* marks the point of attachment. For = O=C*"}
{"substance": "MGGGMRTGNAN [A11, 11-amino-acid MccA-based peptide […]]", "values": [{"measurement": "Increase in adenylated product yield on N-terminal formylation, compared to the unformylated peptide", "setting": "[1]; [3]", "value": "~2", "unit": "fold"}, {"measurement": "Yield of adenylated peptide (unformylated peptides)", "setting": "[1]", "value": "comparable yields"}]}
{"substance": "MASTAGGGMRTGNAN [A15, 15-amino-acid MccA-based peptide […]]", "values": [{"measurement": "Decrease in adenylated product yield on N-terminal formylation, compared to the unformylated peptide", "setting": "[1]; [3]", "value": "~3", "unit": "fold"}, {"measurement": "Yield of adenylated peptide (unformylated peptides)", "setting": "[1]", "value": "comparable yields"}]}
{"substance": "MRTGNAN [A7, 7-amino-acid McC precursor peptide MRTGNAN, chemically synthesized]", "values": [{"measurement": "Increase in adenylated product yield on N-terminal formylation, compared to the unformylated peptide", "setting": "[1]; [3]", "value": "approximately 8 fold"}, {"measurement": "Increase in adenylated product yield on N-terminal formylation, compared to the unformylated peptide", "setting": "[1]; formylated versus unformylated peptide, listed as heptapeptide MccA", "value": "~10", "unit": "fold"}, {"measurement": "Yield of adenylated peptide (unformylated peptides)", "setting": "[1]", "value": "comparable yields"}]}
{"substance": "Microcin C (For-MRTGNAN-{adenylate (N-P bond, aminopropyl on phosphoramidate)}) [McC, heptapeptide adenylate antibiotic, formylated, with aminopropyl on the phosphoramidate]", "values": [{"measurement": "Increase of toxicity of McC by the aminopropyl moiety", "setting": "[2]", "value": "4- to 10 fold"}]}
